pIC50: −log10 of the molar value. Where two headings read alike, the source gives them in different places.

Our source for the IC50 and AC50 values is patent US20250332173A1, “COMPOUNDS AND METHODS FOR MODULATING NUCLEIC ACID SPLICING” (REMIX THERAPEUTICS INC., priority 2021, published 2025).

What all share (type): cell-based, human
For experiment [1], the system named is MYB. Put plainly: HiBiT protein abundance assay, MYB HiBiT K562 cell line. Conditions: HiBiT K562 cell line, 24 hours, top dose 10 μM; read-out: Effect on protein abundance, MYB (IC50 category). In outline: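 Tagged-protein abundance measured by split-NanoBiT luminescence after lysis, following 24 h compound exposure (37° C; 10 μM top, 3-fold, 10 points; DMSO ≤0.25%) of HiBiT knock-in K562 cells. Percent response vs DMSO and unmodified-cell controls; 4-parameter logistic interpolation at 50% gave IC50.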
In general terms: The HiBiT peptide binds its large partner to form an active luciferase.

Experiment [2] deals with Target C. Put plainly: HiBiT protein abundance assay, Target C (Promega Nano-Glo HiBiT Lytic Detection System, knock-in K562 cell line). Conditions: Homo sapiens, K562, 24 h, HiBiT K562 cell line, 24 hours, top dose 10 μM; read-out: Effect on protein abundance, Target C (IC50 category). In outline:
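Protein abundance was read by Nano-Glo HiBiT lytic luminescence after 24 h compound exposure (10-point, threefold series from 10 μM final) of HiBiT knock-in K562 cells. Parental K562 served as baseline; the 50%-abundance concentration was interpolated from a four-parameter logistic fit.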

Experiment [3] relates to MYB mRNA. Put plainly: RT-qPCR splicing assay, MYB canonical junction (CJ) and alternative junction (AJ) mRNA. The settings on record: Homo sapiens; for AC50: increase in MYB alternative junction (AJ) mRNA, read-out: MYB AJ AC50. In outline:
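Read-out is one-step RT-qPCR on cell lysates detecting the exon-exon junction of each isoform, normalized to a housekeeping gene (PPIA in A673, GAPDH or GUSB in K562).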

The mark [4] stands for this setting: Table 5 panel, canonical junction qPCR, compound concentration having 50% response in CJ decrease, read-out: MYB IC50 (decrease in CJ mRNA levels).
[5] abbreviates: decrease in MYB canonical junction (CJ) mRNA, RT-qPCR, read-out: MYB CJ IC50.

In the case of `Cc1cn2nc(-c3ccc4c(=O)n(C5CCNCC5)ccc4c3)cc(C(=O)N(C)C)c2n1` [Compound 524, N, N, 2-trimethyl-6-[1-oxo-2-(4-piperidyl)-6-isoquinolyl]imidazo[1,2-b]pyridazine-8-carboxamide], the pIC50 in experiment [1], in experiment [2], in experiment [3] (setting [4]) and in experiment [3] (setting [5]) was less than 5.00 in each case. Further, the AC50 in experiment [3] (RT-qPCR) is more than 10000 nM.
Regarding `Cc1cn2nc(-c3ccc4c(=O)n(C5CCNCC5)ccc4c3)cc(CO)c2n1` [Compound 525, 6-[8-(hydroxymethyl)-2-methyl-imidazo[1,2-b]pyridazin-6-yl]-2-(4-piperidyl) isoquinolin-1-one], the pIC50 in experiment [1] is more than 7.00; in experiment [2], 6.00 to 7.00; in experiment [3] (setting [4]), 6.00 to 7.00; in experiment [3] (setting [5]), more than 7.00. Further, in experiment [3] (RT-qPCR), the AC50 was 100 to 1000 nM.
Take `Cc1cn2nc(-c3ccc4c(=O)n(C5CCNCC5)ccc4c3)cc(OCc3ccccc3)c2n1` [Compound 526, 6-(8-benzyloxy-2-methyl-imidazo[1,2-b]pyridazin-6-yl)-2-(4-piperidyl) isoquinolin-1-one]: the pIC50 in experiment [1] was more than 7.00; in experiment [2], 6.00 to 7.00; in experiment [3] (setting [4]), 6.00 to 7.00; in experiment [3] (setting [5]), 6.00 to 7.00. Moreover, in experiment [3] (RT-qPCR), the AC50 is 100 to 1000 nM.
Regarding `COC(=O)Cc1cc(-c2ccc3c(=O)n(C4CCNCC4)ccc3c2)nn2cc(C)nc12` [Compound 527], the pIC50 in experiment [1], in experiment [2], in experiment [3] (setting [4]) and in experiment [3] (setting [5]) was 6.00 to 7.00 each time. Besides, the AC50 in experiment [3] (RT-qPCR) lay in the range of 100 to 1000 nM.
Consider `Cc1cn2nc(-c3ccc4c(=O)n(C5CCNCC5)ccc4c3)cc(CC(N)=O)c2n1` [Compound 528, 2-(2-methyl-6-(1-oxo-2-(piperidin-4-yl)-1,2-dihydroisoquinolin-6-yl)imidazo[1,2-b]pyridazin-8-yl) acetamide], for which the pIC50 is 5.00 to 6.00 in experiment [1], 6.00 to 7.00 in experiment [2], 5.00 to 6.00 in experiment [3] (setting [4]) and 5.00 to 6.00 in experiment [3] (setting [5]). Besides, in experiment [3] (RT-qPCR), the AC50 was 1000 to 10000 nM.
For `CCOC(=O)c1cc(-c2ccc3c(=O)n(C4CCNCC4)ccc3c2)nn2cc(C)nc12` [Compound 529, ethyl 2-methyl-6-[1-oxo-2-(4-piperidyl)-6-isoquinolyl]imidazo[1,2-b]pyridazine-8-carboxylate], the pIC50 in experiment [1], in experiment [2], in experiment [3] (setting [4]) and in experiment [3] (setting [5]) was 6.00 to 7.00 in each case. In experiment [3] (RT-qPCR), the half-maximal activity concentration (AC50) lay in the range of 100 to 1000 nM.
`Cn1cc2c(=O)n(-c3ccc4c(=O)n(C5CCNCC5)ccc4c3)ccc2n1` [Compound 530, 6-{2-methyl-4-oxopyrazolo[4,3-c]pyridin-5-yl}-2-(piperidin-4-yl)isoquinolin-1-one]: the pIC50 in experiment [1], in experiment [2], in experiment [3] (setting [4]) and in experiment [3] (setting [5]) was less than 5.00 each time. The AC50 in experiment [3] (RT-qPCR) is more than 10000 nM.
With `Cc1cn2nc(-c3ccc4c(=O)n(C5CCNCC5)ccc4c3)cc(CC(=O)O)c2n1` [Compound 531, 2-[2-methyl-6-[1-oxo-2-(4-piperidyl)-6-isoquinolyl]imidazo[1,2-b]pyridazin-8-yl]acetic acid], the pIC50 in experiment [1] was more than 7.00; in experiment [2], 6.00 to 7.00; in experiment [3] (setting [4]), 6.00 to 7.00; in experiment [3] (setting [5]), 6.00 to 7.00. For the same compound, the AC50 in experiment [3] (RT-qPCR) was 100 to 1000 nM.
On to `Cc1cn2nc(-c3ccc4c(=O)n(C5CCNCC5)ccc4c3)cc(CCO)c2n1` [Compound 533, 6-[8-(2-hydroxyethyl)-2-methyl-imidazo[1,2-b]pyridazin-6-yl]-2-(4-piperidyl)isoquinolin-1-one], for which the pIC50 in experiment [1] is more than 7.00; in experiment [2], 6.00 to 7.00; in experiment [3] (setting [4]), 6.00 to 7.00; in experiment [3] (setting [5]) it was 6.00 to 7.00. Moreover, the AC50 in experiment [3] (RT-qPCR) was in the range of 100 to 1000 nM.
`CNC(=O)Cc1cc(-c2ccc3c(=O)n(C4CCNCC4)ccc3c2)nn2cc(C)nc12` [Compound 534, N-methyl-2-[2-methyl-6-[1-oxo-2-(4-piperidyl)-6-isoquinolyl]imidazo[1,2-b]pyridazin-8-yl]acetamide]: the pIC50 in experiment [1] is 6.00 to 7.00; in experiment [2] it was 5.00 to 6.00; in experiment [3] (setting [4]), 5.00 to 6.00; in experiment [3] (setting [5]), 5.00 to 6.00. Besides, the AC50 in experiment [3] (RT-qPCR) was in the range of 1000 to 10000 nM.
In the case of `Cc1cn2nc(-c3ccc4c(=O)n(C5CCNCC5)ccc4c3)cc(Cc3nnc[nH]3)c2n1` [Compound 535, 6-[2-methyl-8-(4H-1,2,4-triazol-3-ylmethyl)imidazo[1,2-b]pyridazin-6-yl]-2-(4-piperidyl) isoquinolin-1-one], the pIC50 in experiment [1], in experiment [2], in experiment [3] (setting [4]) and in experiment [3] (setting [5]) was 5.00 to 6.00 throughout. The AC50 in experiment [3] (RT-qPCR) was in the range of 1000 to 10000 nM.
Take `Cc1cn2nc(-c3ccc4c(=O)n(C5CCNCC5)ccc4c3)cc(Cc3nnn[nH]3)c2n1` [Compound 536, 6-[2-methyl-8-(1H-tetrazol-5-ylmethyl)imidazo[1,2-b]pyridazin-6-yl]-2-(4-piperidyl) isoquinolin-1-one]: the pIC50 in experiment [1], in experiment [2], in experiment [3] (setting [4]) and in experiment [3] (setting [5]) was less than 5.00 in each case. For the same compound, in experiment [3] (RT-qPCR), the AC50 is more than 10000 nM.
As for `CCN1CCC(n2ncc3cc(-c4cc(C)c5nc(C)cn5n4)cc(F)c3c2=O)CC1` [Compound 537], the negative logarithm of the IC50 (pIC50) in experiment [1], in experiment [2], in experiment [3] (setting [4]) and in experiment [3] (setting [5]) was 6.00 to 7.00 throughout. In addition, in experiment [3] (RT-qPCR), the AC50 fell in the range of 100 to 1000 nM.
Regarding `Cc1cn2nc(-c3cc(F)c4c(=O)n(C5CCN(CCF)CC5)ncc4c3)cc(C)c2n1` [Compound 538], the pIC50 in experiment [1], in experiment [2], in experiment [3] (setting [4]) and in experiment [3] (setting [5]) was 6.00 to 7.00 in each case. For the same compound, the AC50 in experiment [3] (RT-qPCR) fell in the range of 100 to 1000 nM.
For `Cc1cn2nc(-c3cc(F)c4c(=O)n(C5CCN(C)CC5)ncc4c3)cc(C)c2n1` [Compound 539], the pIC50 in experiment [1], in experiment [2], in experiment [3] (setting [4]) and in experiment [3] (setting [5]) was more than 7.00 in each case. For the same compound, the AC50 in experiment [3] (RT-qPCR) was less than 100 nM.
Consider `Cc1cn2nc(-c3cc(F)c4c(=O)n(C5CCNCC5)ncc4c3)cc(C)c2n1` [Compound 540], for which the pIC50 in experiment [1], in experiment [2], in experiment [3] (setting [4]) and in experiment [3] (setting [5]) was more than 7.00 each time. The AC50 in experiment [3] (RT-qPCR) is less than 100 nM.
In the case of `Cc1cn2nc(-c3cc(O)c4c(=O)n(C5CCNCC5)ncc4c3)cc(C)c2n1` [Compound 541], the pIC50 in experiment [1], in experiment [2], in experiment [3] (setting [4]) and in experiment [3] (setting [5]) was more than 7.00 each time. Further, in experiment [3] (RT-qPCR), the AC50 is less than 100 nM.
For the compound `CCN1CCC(n2ncc3cc(-c4cc(C)c5nc(C)cn5n4)cc(O)c3c2=O)CC1` [Compound 542], the pIC50 in experiment [1], in experiment [2], in experiment [3] (setting [4]) and in experiment [3] (setting [5]) was more than 7.00 each time. For the same compound, the AC50 in experiment [3] (RT-qPCR) was less than 100 nM.
Consider `Cc1cn2nc(-c3cc(O)c4c(=O)n(C5CCN(C)CC5)ncc4c3)cc(C)c2n1` [Compound 543], for which the pIC50 in experiment [1], in experiment [2], in experiment [3] (setting [4]) and in experiment [3] (setting [5]) was 6.00 to 7.00 in each case. Further, the AC50 in experiment [3] (RT-qPCR) was 100 to 1000 nM.

One may read the pIC50 as the negative decadic logarithm of the IC50, by convention in mol/L. In general, AC50 refers to the concentration at which the activity in the assay is half-maximal.
